Measured values as given in patent EP0968649A1, “Adjuvants for novel dry herbicide formulations” (E.I. DU PONT DE NEMOURS AND COMPANY, priority 1998, dated 2000).

Assays:
Assay type in all cases: in vivo
[1] = test system: velvetleaf (Abutilon theophrastic); experiment: Example 23: adjuvants tank mixed with chlorimuron ethyl, percent control from green fresh weights; conditions: herbicide alone, no adjuvant; chlorimuron ethyl 1.5 g/ha; 187 L/ha; after two weeks
Experimental: (§1) The effect of adjuvants on the activity of chlorimuron ethyl was investigated by tank mixing the adjuvants with the herbicide. Evaluation of the adjuvants was made by mixing the adjuvant with an herbicide solution and spraying the resulting solution at a rate of 1.5 g/ha chlorimuron ethyl in a spray volume of 187 L/ha on velvetleaf (Abutilon theophrastic). Four replications were made of each treatment. Plants were evaluated after two weeks by measuring their green fresh weights and convening these weight by comparison to an untreated control treatment into percent control values.

[2] = test system: giant foxtail (Setaria faberi); experiment: Example 21: adjuvants tank mixed with isopropylamine salt of glyphosate, percent control from green fresh weights; conditions: herbicide alone, no added adjuvant; 210 g/ha isopropylamine salt of glyphosate; 187 L/ha; after two weeks
Experimental: as §1, with “of the isopropylamine salt of glyphosate” for “of chlorimuron ethyl”, “of 210” for “of 1.5”, “g/ha isopropylamine salt of glyphosate” for “g/ha chlorimuron ethyl”, “on giant foxtail (Setaria faberi).” for “on velvetleaf (Abutilon theophrastic).”, “and converting” for “and convening”

[3] = test system: Alopecurus myosuroides (ALOMY); experiment: Example 8: field weed control, adjuvants mixed with flupyrsulfuron methyl, visual percent growth reduction and head count; conditions: surfactant, where named, 0.1%; for % control ALOMY: 300 L/ha, 60 days after treatment; for Heads/m^2 ALOMY: at 85 days, untreated 784
Description: (§2) Evaluation of the adjuvants was made, in the field by mixing the adjuvant with flupyrsulfuron methyl herbicide and spraying the resulting solution at a rate of 2.5 to 20 g/ha flupyrsulfuron methyl in a spray volume of 300 L/ha on Alopecurus myosuroides (ALOMY). Surfactants were applied at a concentration of 0.1 % by weight of SC5045 or 0.1 % by volume of Trend® 90 per volume of spray solution. Three replications were made of each treatment. Weed control was visually assessed 60 days after treatment by evaluating the percent growth reduction, using a 0 to 100% scale where 0% equals no control, and 100% equals death of the weed and by counting the number of ALOMY heads per m^2, at 85 days.

[4] = test system: giant foxtail (Setaria faberi); experiment: Example 19: adjuvants tank mixed with nicosulfuron, percent control from green fresh weights; conditions: Adjuvant Conc. 0 % w/w (no adjuvant); nicosulfuron 3.5 g/ha; 187 L/ha; after two weeks
Experimental: as §1, with “nicosulfuron” for “chlorimuron ethyl”, “a nicosulfuron” for “an herbicide”, “3.5” for “1.5”, “giant foxtail (Setaria faberi). Three” for “velvetleaf (Abutilon theophrastic). Four”, “converting” for “convening”

[5] = test system: giant foxtail (Setaria faberi); experiment: Example 20: adjuvants tank mixed with nicosulfuron, percent control from green fresh weights; conditions: herbicide alone, no adjuvant; nicosulfuron 3.5 g/ha; 187 L/ha; after two weeks
Experimental: as §1, with “nicosulfuron” for “chlorimuron ethyl”, “a nicosulfuron” for “an herbicide”, “3.5” for “1.5”, “giant foxtail (Setaria faberi).” for “velvetleaf (Abutilon theophrastic).”, “treatment. The experiment was repeated three times.” for “treatment.”, “converting” for “convening”

[6] = test system: giant foxtail (Setaria faberi); experiment: Example 22: adjuvants tank mixed with quizalofop-ethyl, percent control from green fresh weights; conditions: herbicide alone, no adjuvant; quizalofop-ethyl 3.5 g/ha; 187 L/ha; after two weeks
Experimental: as §1, with “quizalofop-ethyl” for “chlorimuron ethyl”, “3.5” for “1.5”, “giant foxtail (Setaria faberi).” for “velvetleaf (Abutilon theophrastic).”, “treatment. The experiment was repeated two times.” for “treatment.”, “converting” for “convening”

[7] = test system: Alopecurus myosuroides (ALOMY); experiment: Example 6: field weed control, SCS5045 surfactant mixed with sulfosulfuron, visual percent growth reduction and head count; conditions: where named, 0.1%; for % control ALOMY: 300 L/ha, 60 days after treatment; for Heads/m^2 ALOMY: counted 85 days after treatment, untreated 400
Description: as §2, with “SCS5045 surfactant” for “the adjuvants”, “surfactant” for “adjuvant”, “sulfosulfuron” for “flupyrsulfuron methyl”, “11.25” for “2.5”, “45 g /ha sulfosulfuron” for “20 g/ha flupyrsulfuron methyl”, “weed.” for “weed and by counting the number of ALOMY heads per m^2, at 85 days.”
The number of ALOMY heads per m^2 was also counted 85 days after treatment.

[8] = test system: Veronica hederifolia (VERHE); experiment: Example 7: field weed control, SCS5045 surfactant mixed with metsulfuron methyl, visual percent growth reduction; conditions: where named, 0.1%, 300 L/ha, 50 days after treatment
Description: Evaluation of SCS5045 surfactant was made, in the field by mixing the surfactant with metsulfuron methyl herbicide and spraying the resulting solution at a rate of 5.625 to 45 g/ha metsulfuron methyl in a spray volume of 300 L/ha on Veronica hederifolia (VERHE). Surfactants were applied at a concentration of 0.1% by weight (if the surfactant is dry) or by volume (if the surfactant is a liquid) of surfactant per volume of spray solution. Three replications were made of each treatment. Weed control was visually assessed 50 days after treatment by evaluating the percent growth reduction, using a 0 to 100% scale where 0% equals no control, and 100% equals death of the weed.

[9] = test system: common lambsquarters (Chenopodium album L.); experiment: Example 24: adjuvants tank mixed with thifensulfuron methyl, percent control from green fresh weights; conditions: herbicide alone, no adjuvant; thifensulfuron methyl 2 g/ha; 187 L/ha; after two weeks
Experimental: as §1, with “thifensulfuron methyl” for “chlorimuron ethyl”, “2” for “1.5”, “common lambsquarters (Chenopodium album L.).” for “velvetleaf (Abutilon theophrastic).”, “converting” for “convening”

Viola arvensis (VIOAR) = experiment: Example 5: weed control, SCS5045 surfactant mixed with tribenuron methyl, visual percent growth reduction; conditions: where named, 0.1%, 300 L/ha, 70 days after treatment
Description: (§3) Evaluation of SCS5045 surfactant was made by mixing the surfactant with tribenuron methyl herbicide and spraying the resulting solution at a rate of 5.625 to 45 g/ha tribenuron methyl in a spray volume of 300 L/ha on Viola arvensis (VIOAR) and Veronica agrestis (VERAG). Surfactants were applied at a concentration of 0.1% by weight (if the surfactant is dry) or by volume (if the surfactant is a liquid) of surfactant per volume of spray solution. Three replications were made of each treatment. Weed control was visually assessed 70 days after treatment by evaluating the percent growth reduction, using a 0 to 100% scale where 0% equals no control, and 100% equals death of the weed.

[10] = test system: Veronica agrestis (VERAG); experiment: as above; conditions: where named, 0.1%, 300 L/ha, 70 days after treatment
Description: as §3

[11] = flupyrsulfuron methyl 2.5 g herbicide /ha
[12] = flupyrsulfuron methyl 5 g herbicide /ha
[13] = flupyrsulfuron methyl 10 g herbicide /ha
[14] = flupyrsulfuron methyl 20 g herbicide /ha
[15] = sulfosulfuron 11.25 g herbicide /ha
[16] = sulfosulfuron 22.5 g herbicide /ha
[17] = sulfosulfuron 33.75 g herbicide /ha
[18] = sulfosulfuron 45 g herbicide /ha
[19] = tribenuron methyl 5.625 g ai/ha
[20] = tribenuron methyl 11.25 g ai/ha

## CCOC(=O)c1ccccc1S(=O)(=O)NC(=O)Nc1nc(Cl)cc(OC)n1 [Chlorimuron Alone, chlorimuron ethyl]
[1]
  % Velvetleaf Control: 53%

## CC(C)N.O=C(O)CNCP(=O)(O)O [Glyphosate IPA Alone, isopropylamine salt of glyphosate]
[2]
  % Control: 85%

## COC(=O)c1ccc(C(F)(F)F)nc1S(=O)(=O)NC(=O)Nc1nc(OC)cc(OC)n1 [KE459, flupyrsulfuron methyl]
[3]; [11]
  % control ALOMY: 63%
  Heads/m^2 ALOMY: 224 Heads/m^2
[3]; [12]
  % control ALOMY: 73%
  Heads/m^2 ALOMY: 164 Heads/m^2
[3]; [13]
  % control ALOMY: 77%
  Heads/m^2 ALOMY: 16 Heads/m^2
[3]; [14]
  % control ALOMY: 88%
  Heads/m^2 ALOMY: 8 Heads/m^2

## COc1cc(OC)nc(NC(=O)NS(=O)(=O)c2ncccc2C(=O)N(C)C)n1 [Nicosulfuron Alone, nicosulfuron]
[4]
  percent control: 0%
[5]
  % Control: 2%

## CCOC(=O)C(C)Oc1ccc(Oc2cnc3cc(Cl)ccc3n2)cc1 (stereo not shown) [Quizalofop Ethyl Alone, quizalofop-ethyl]
[6]
  % Control: 7%

## CCS(=O)(=O)c1nc2ccccn2c1S(=O)(=O)NC(=O)Nc1nc(OC)cc(OC)n1 [Sulfosulfuron, sulfosulfuron]
[7]; [15]
  % control ALOMY: 33%
  Heads/m^2 ALOMY: 209 Heads/m^2
[7]; [16]
  % control ALOMY: 47%
  Heads/m^2 ALOMY: 76 Heads/m^2
[7]; [17]
  % control ALOMY: 60%
  Heads/m^2 ALOMY: 25 Heads/m^2
[7]; [18]
  % control ALOMY: 77%
  Heads/m^2 ALOMY: 6 Heads/m^2

## COC(=O)c1ccccc1S(=O)(=O)NC(=O)Nc1nc(C)nc(OC)n1 [T6376, metsulfuron methyl]
[8]; metsulfuron methyl 5.625 g herbicide /ha
  VERHE (percent growth reduction): 33%
[8]; metsulfuron methyl 11.25 g herbicide /ha
  VERHE (percent growth reduction): 33%
[8]; metsulfuron methyl 22.5 g herbicide /ha
  VERHE (percent growth reduction): 52%
[8]; metsulfuron methyl 45 g herbicide /ha
  VERHE (percent growth reduction): 100%

## COC(=O)c1sccc1S(=O)(=O)NC(=O)Nc1nc(C)nc(OC)n1 [Thifensulfuron Alone, thifensulfuron methyl]
[9]
  % Common Lambsquarters Control: 11%

## COC(=O)c1ccccc1S(=O)(=O)NC(=O)N(C)c1nc(C)nc(OC)n1 [Tribenuron methyl, tribenuron methyl]
Viola arvensis (VIOAR); [19]
  % control VIOAR: 27%
Viola arvensis (VIOAR); [20]
  % control VIOAR: 75%
Viola arvensis (VIOAR); tribenuron methyl 22.5 g ai/ha
  % control VIOAR: 80%
Viola arvensis (VIOAR); tribenuron methyl 45 g ai/ha
  % control VIOAR: 99%
[10]; [19]
  % control VERAG: 47%
[10]; [20]
  % control VERAG: 60%
[10]; tribenuron methyl 22.5 g ai/ha
  % control VERAG: 63%
[10]; tribenuron methyl 45 g ai/ha
  % control VERAG: 87%
